Measured values: patent US9901111B2, “Taste-improving peptide” (Takasago International Corporation, priority 2011, dated 2018)

Assay: Sensory evaluation of sourness-masking effect in yoghurt drink by five special panelists
Details: for Evaluation Result (sourness-masking effect): score 0-3, stored at 10° C. for 10 days
Procedure: The peptide mixture obtained in the above procedure 1 was centrifuged (20,000 G) to obtain an aqueous layer. The aqueous layer was treated with UF membranes of 20 nm, 5 kDa and 1 kDa, respectively, and permeate solutions were collected. Each permeate solution obtained through the UF membranes or the peptide mixture before treatment were added to a commercially available yoghurt drink. After the yoghurt drink was stored at 10° C. for 10 days, five special panelists conducted sensory evaluation regarding a sourness-masking effect. Note that each sample was prepared such that the addition amount is 0.1% calculated in terms of the peptide mixture. A commercially available yoghurt drink without addition was used as control. Evaluation was performed by scoring from 0 to 3 shown in Table 1 at 0.5 point intervals.
(§1) In the same manner as in the above procedure 2, the obtained 13 fractions were added to a commercially available yoghurt drink, respectively. After the yoghurt drink was stored at 10° C. for 10 days, five special panelists conducted sensory evaluation regarding a sourness-masking effect. Each sample was prepared such that the addition amount is 0.1% calculated in terms of the peptide mixture. The evaluation method is the same as in the above procedure 2.
as §1, with “four” for “13”
The five kinds of peptide identified in Example 1 and phenylalanine were added to a commercially available yoghurt drink, respectively. After the yoghurt drink was stored at 10° C. for 10 days, five special panelists conducted sensory evaluation regarding a sourness-masking effect. The peptide mixture obtained in Example 1-1 was added in an amount of 0.1%, the peptides and phenylalanine obtained in Example 1-5 were added in an amount of 20 ppb and the mixture of VP+LLL was added in an amount of 10 ppb each. The evaluation method was the same as in Example 1-2.
VP and LLL were mixed in the mixture ratio within the range from 1:9 to 9:1 and each mixture was added to a commercially available yoghurt drink in an amount of 0.01 ppm. After the yoghurt drink was stored at 10° C. for 10 days, five special panelists conducted sensory evaluation regarding a sourness-masking effect. The evaluation method is the same as in the Example 1-2.
VP, LLL and the mixture of equal parts of VP and LLL were added to a commercially available yoghurt drink in an amount of 0.001 ppm, 0.01 ppm and 0.1 ppm, respectively. After the yoghurt drink was stored at 10° C. for 10 days, five special panelists conducted sensory evaluation regarding a sourness-masking effect. The evaluation method is the same as in the Example 1-2.

[1] = Example 4, addition concentration 0.001 ppm
[2] = Example 4, addition concentration 0.01 ppm
[3] = Example 4, addition concentration 0.1 ppm

Compound | Evaluation Result (sourness-masking effect) (Example 2, added at 20 ppb) | sourness-masking effect, in words (Example 2, added at 20 ppb) | Evaluation Result (sourness-masking effect) (Example 3, added at 0.01 ppm) | Evaluation Result (sourness-masking effect) [1] | Evaluation Result (sourness-masking effect) [2] | Evaluation Result (sourness-masking effect) [3]
N[C@@H](Cc1ccccc1)C(=O)O [F, phenylalanine, reference compound] | 0.1 |  |  |  |  | 
Leu-Leu-Leu [LLL] | 1.4 | remarkable sourness-masking effect | 1.3 | 0.3 | 1.4 | 1.5
Leu-Leu-Leu-Leu (LLLL; printed: Leu-Leu-Leu-Leu) [reference compound] | 0.3 |  |  |  |  | 
Leu-Pro-Pro [LPP, reference compound] | 0.3 |  |  |  |  | 
Val-Pro [VP] | 1.3 | remarkable sourness-masking effect | 1.4 | 0.2 | 1.5 | 1.5
Val-Pro-Pro [VPP, reference compound] | 0.2 |  |  |  |  | 
